Measurements: patent US6924251B1, “Substituted benzoylcyclohexandiones” (Bayer Aktiengesellschaft, priority 1998, dated 2005)

Tests used:
[1] = logP determination by HPLC (reversed-phase C18), EEC Directive 79/831 Annex V.A8; details: for logP: Table 3, compounds of formula (IV); labelled a): acidic range, 0.1% aqueous phosphoric acid, acetonitrile, linear gradient 10% to 90% acetonitrile, 43° C.

Row | SMILES | logP [1] | further results
1 | COC(=O)c1ccc(Cl)c(Cn2nc(OCC(F)(F)F)n(C3CC3)c2=O)c1Cl [IV-18] | m.p.: 102 °C logP = 3.05^a) | –
2 | CCOC(=O)c1ccc(Br)cc1Cn1nc(C)oc1=O [IV-73] | logP = 2.88^a) | –
3 | CCOc1nn(Cc2c(Cl)ccc(C(=O)OC)c2Cl)c(=O)n1C1CC1 [IV-16] | m.p.: 99 °C logP = 2.73^a) | –
4 | CCOC(=O)c1ccc(Br)cc1CN1CCOC1=O [IV-72] | logP = 2.36^a) | –
5 | COC(=O)c1ccc(Cl)c(Cn2nc(Br)n(C)c2=O)c1Cl [IV-9] | m.p.: 164 °C logP = 2.18^a) | –
6 | CCOc1nn(Cc2cc(I)ccc2C(=O)OC)c(=O)n1C [IV-116] | logP = 2.68^a) | –
7 | CCOC(=O)c1ccc(S(C)(=O)=O)cc1CN1C(=O)CCC1=O [IV-33] | logP = 1.53^a) | –
8 | CCOC(=O)c1ccc(F)cc1Cn1nc(COC)n(C)c1=O [IV-96] | logP = 2.05^a) | –
9 | CCOC(=O)c1ccc(Cl)cc1Cn1nc(OCC)n(C2CC2)c1=O [IV-42] | logP = 3.23^a) | –
10 | CCOC(=O)c1ccc(C(F)(F)F)cc1Cn1nc(N(C)C)n(C)c1=O [IV-85] | logP = 2.79^a) | –
11 | COC(=O)c1ccc(Cl)c(Cn2nc(SC)n(C3CC3)c2=O)c1Cl [IV-19] | m.p.: 131 °C logP = 2.70^a) | –
12 | CCOC(=O)c1ccc(Br)cc1Cn1nc(OC(C)C)n(C)c1=O [IV-65] | logP = 3.34^a) | –
13 | CCOC(=O)c1ccc([N+](=O)[O-])cc1Cn1nc(SC)n(C)c1=O [IV-46] | logP = 2.82^a) | –
14 | CCOC(=O)c1ccc(F)cc1Cn1nc(N(C)C)n(C)c1=O [IV-94] | logP = 2.21^a) | –
15 | CCOC(=O)c1ccc(C(F)(F)F)cc1Cn1nc(C)oc1=O [IV-92] | logP = 3.04^a) | –
16 | CCOC(=O)c1ccc(Br)cc1Cn1nc(N(C)C)n(C)c1=O [IV-82] | logP = 2.60^a) | –
17 | COC(=O)c1ccc(Cl)c(CN2CCCN(C)C2=O)c1Cl [IV-24] | logP = 2.07^a) | –
18 | CCCOc1nn(Cc2cc(C(F)(F)F)ccc2C(=O)OCC)c(=O)n1C [IV-71] | logP = 3.54^a) | –
19 | CCOC(=O)c1ccc(Br)cc1Cn1nc(Br)n(C)c1=O [IV-75] | logP = 2.80^a) | –
20 | Cn1c(C(F)(F)F)nn(-c2ccc(C(=O)C3C(=O)CCCC3=O)c(Cl)c2)c1=O [compound 2, 2-[4-(2,6-dioxocyclohexylcarbonyl)-3-chloro-phenyl]4-methyl-5-trifluoromethyl-2,4-dihydro-3H-1,2,4-triazol-3′-one] | – | melting point: 182 °C; chromatographic logP ([1]; reversed-phase C18 HPLC column, pH 2): 3.13
21 | CCOC(=O)c1ccc(C(F)(F)F)cc1Cn1nc(SC)n(C)c1=O [IV-49] | logP = 3.02^a) | –
22 | COC(=O)c1ccc(Cl)c(Cn2nc3n(c2=O)CCCC3)c1Cl [IV-14] | m.p.: 178 °C logP = 1.86^a) | –
23 | CCOC(=O)c1ccc(C(F)(F)F)cc1CN1C(=O)c2ccccc2S1(=O)=O [IV-86] | logP = 3.67^a) | –
24 | CCOc1nn(Cc2c(Cl)ccc(C(=O)OC)c2Cl)c(=O)n1C [IV-4] | m.p.: 120 °C logP = 2.38^a) | –
25 | Cn1c(C(F)(F)F)nn(Cc2c(Cl)ccc(C(=O)O)c2Cl)c1=O [III-3, 4-methyl-5-trifluoromethyl-2-(2,6-dichloro-3-carboxy-benzyl)-2,4-dihydro-3H-1,2,4-triazol-3-one] | – | melting point: 207 °C
26 | CCOC(=O)c1ccc(C(F)(F)F)cc1Cn1nc(CC)n(OCC)c1=O [IV-48] | logP = 3.38^a) | –

Row | SMILES | logP [1] | further results
27 | CCOC(=O)c1ccc(C(F)(F)F)cc1Cn1cc(C(F)(F)F)c(=O)[nH]c1=O [IV-90] | logP = 2.93^a) | –
28 | COC(=O)c1ccc(Cl)c(Cn2nc(OC(C)C)n(C3CC3)c2=O)c1Cl [IV-17] | m.p.: 56 °C logP = 3.08^a) | –
29 | CCOC(=O)c1ccc(C(F)(F)F)cc1Cn1c(=O)n(C)c(=O)n1C [IV-113] | logP = 2.58^a) | –
30 | COC(=O)c1ccc(Cl)c(Cn2nc(C3CC3)n(C)c2=O)c1Cl [IV-11] | m.p.: 106 °C logP = 2.16^a) | –
31 | COC(=O)c1ccc(Cl)c(Cn2nc(N(C)C)n(C)c2=O)c1Cl [IV-12] | m.p.: 126 °C logP = 2.11^a) | –
32 | COC(=O)c1ccc(Cl)c(Cn2nc(OCC(F)(F)F)n(C)c2=O)c1Cl [IV-8] | m.p.: 129 °C logP = 2.72^a) | –
33 | COC(=O)c1ccc(Cl)c(CN2C(=O)c3ccccc3S2(=O)=O)c1Cl [IV-25] | m.p.: 157 °C logP = 2.94^a) | –
34 | CCCOC(=O)c1ccc(C(F)(F)F)cc1Cn1nc(OCC)n(C2CC2)c1=O [IV-50] | logP = 3.91^a) | –
35 | CCOc1nn(Cc2cc(C(F)(F)F)ccc2C(=O)OC)c(=O)n1C [IV-117] | logP = 2.74^a) | –
36 | CCOC(=O)c1ccc(F)cc1Cn1nc(SC)n(C)c1=O [IV-37] | logP = 2.45^a) | –
37 | CCOC(=O)c1ccc(Br)cc1Cn1nc(CC)n(OCC)c1=O [IV-34] | logP = 3.24^a) | –
38 | CCOn1c(CC)nn(Cc2c(Cl)ccc(C(=O)OC)c2Cl)c1=O [IV-22] | m.p.: 85 °C logP = 2.58^a) | –
39 | COC(=O)c1ccc(Cl)c(Cn2nc(SC)n(C)c2=O)c1Cl [IV-3] | m.p.: 229 °C logP = 2.27^a) | –
40 | CCOC(=O)c1ccc(C(F)(F)F)cc1Cn1nc(OC(C)C)n(C)c1=O [IV-70] | logP = 3.51^a) | –
41 | COC(=O)c1ccc(Cl)c(Cn2nc(OC(C)C)n(C)c2=O)c1Cl [IV-7] | m.p.: 68 °C logP = 2.73^a) | –
42 | CCCOc1nn(Cc2cc(F)ccc2C(=O)OCC)c(=O)n1C [IV-95] | logP = 2.96^a) | –
43 | CCOC(=O)c1ccc([N+](=O)[O-])cc1Cn1nc(OCC)n(C2CC2)c1=O [IV-45] | logP = 2.42^a) | –
44 | CCOC(=O)c1ccc(Br)cc1Cn1nc2n(c1=O)CCC2 [IV-68] | logP = 2.16^a) | –
45 | CCOc1nn(Cc2cc(S(C)(=O)=O)ccc2C(=O)OC)c(=O)n1C [IV-115] | logP = 1.59^a) | –
46 | CCOC(=O)c1ccc(F)cc1Cn1nc(OC)n(C2CC2)c1=O [IV-97] | logP = 2.50^a) | –
47 | CCOC(=O)c1ccc(C(F)(F)F)cc1CN1N=C(C)C(C)(C)C1=O [IV-99] | logP = 2.91^a) | –
48 | COC(=O)c1ccc(Cl)c(Cn2nc(C)n(C3CC3)c2=O)c1Cl [IV-20] | m.p.: 135 °C logP = 1.97^a) | –
49 | CCOC(=O)c1ccc(C(F)(F)F)cc1Cn1nc(Br)n(C2CC2)c1=O [IV-79] | logP = 3.35^a) | –
50 | CCOC(=O)c1ccc(Br)cc1CN1C(=O)CCC1=O [IV-60] | logP = 2.44^a) | –
51 | CCOC(=O)c1ccc(C(F)(F)F)cc1Cn1cnn(C)c1=O [IV-74] | logP = 2.68^a) | –
52 | CCOC(=O)c1ccc(C(F)(F)F)cc1Cn1nc(COC)n(C2CC2)c1=O [IV-77] | logP = 2.88^a) | –

Row | SMILES | logP [1] | further results
53 | CCOC(=O)c1ccc(C(F)(F)F)cc1Cn1nc(OCC(F)(F)F)n(C)c1=O [IV-93] | logP = 3.45^a) | –
54 | CCOC(=O)c1ccc(Br)cc1Cn1nc(OCC(F)(F)F)n(C)c1=O [IV-67] | logP = 3.31^a) | –
55 | COC(=O)c1ccc(S(C)(=O)=O)cc1Cn1nc(SC)n(C)c1=O [IV-114] | logP = 1.53^a) | –
56 | CCOC(=O)c1ccc(C(F)(F)F)cc1Cn1nc(OCC)n(C2CC2)c1=O [IV-47] | logP = 3.48^a) | –
57 | COC(=O)c1ccc(C(F)(F)F)cc1Cn1nc(SC)n(C)c1=O [IV-118] | logP = 2.65^a) | –
58 | CCOC(=O)c1ccc(F)cc1Cn1nc(OCC)n(C2CC2)c1=O [IV-98] | logP = 2.89^a) | –
59 | COC(=O)c1ccc(Cl)c(Cn2nc(OC)n(C3CC3)c2=O)c1Cl [IV-15] | m.p.: 97 °C logP = 2.36^a) | –
60 | COC(=O)c1ccc(Cl)c(Cn2nc(C(F)(F)F)n(C)c2=O)c1Cl [IV-2, 4-methyl-5-trifluoromethyl-2-(2,6-dichloro-3-methoxycarbonyl-benzyl)-2,4-dihydro-3H-1.2.4-triazol-3-one] | – | melting point: 109 °C
61 | COC(=O)c1ccc(Cl)c(Cn2nc(C3CC3)n(C3CC3)c2=O)c1Cl [IV-5] | m.p.: 127 °C logP = 2.55^a) | –
62 | COC(=O)c1ccc(Cl)c(Cn2nc(N(C)C)n(C3CC3)c2=O)c1Cl [IV-21] | m.p.: 143 °C logP = 2.42^a) | –
63 | CCOC(=O)c1ccc(Cl)cc1Cn1nc(C(F)(F)F)n(C)c1=O [IV-43] | logP = 3.31^a) | –
64 | CCOC(=O)c1ccc(C(F)(F)F)cc1Cn1nc(COC)n(C)c1=O [IV-78] | logP = 2.60^a) | –
65 | COC(=O)c1ccc(Cl)c(Cn2nc(C)n(C)c2=O)c1Cl [IV-13] | m.p.: 146 °C logP = 1.65^a) | –
66 | CCOC(=O)c1ccc(Cl)cc1Cn1nc(SC)n(C)c1=O [IV-81] | logP = 2.83^a) | –
67 | CCOC(=O)c1ccc(C(F)(F)F)cc1Cn1nc(Br)n(C)c1=O [IV-119] | logP = 2.96^a) | –
68 | COC(=O)c1ccc(Cl)c(Cn2nc(OC)n(C)c2=O)c1Cl [IV-6] | m.p.: 121 °C logP = 2.04^a) | –
69 | CCCOc1nn(Cc2cc(Br)ccc2C(=O)OCC)c(=O)n1C [IV-66] | logP = 3.38^a) | –
70 | CCOC(=O)c1ccc(C(F)(F)F)cc1CN1C(=O)c2ccccc2C1=O [IV-87] | logP = 3.80^a) | –
71 | CCOC(=O)c1ccc(Br)cc1Cn1nc(C(F)(F)F)n(C)c1=O [IV-35] | logP = 3.40^a) | –
72 | CCOC(=O)c1ccc(S(C)(=O)=O)cc1Cn1nc(SC)n(C)c1=O [IV-89] | logP = 1.82^a) | –
73 | COC(=O)c1ccc(Cl)c(CN2CCN(C)C2=O)c1Cl [IV-23] | logP = 1.98^a) | –
74 | CCOC(=O)c1ccc(Br)cc1Cn1nc2n(c1=O)CCCC2 [IV-69] | logP = 2.41^a) | –
75 | COC(=O)c1ccc(Cl)c(Cn2ncn(C)c2=O)c1Cl [IV-10] | m.p.: 158 °C logP = 1.55^a) | –
76 | CCOC(=O)c1ccc(Cl)cc1Cn1nc(CC)n(OCC)c1=O [IV-44] | logP = 3.14^a) | –
77 | CCOC(=O)c1ccc(Br)cc1Cn1nc(SC)n(C)c1=O [IV-80] | logP = 2.86^a) | –
78 | CCOC(=O)c1ccc(Br)cc1Cn1nc(OCC)n(C)c1=O [IV-58] | logP = 2.95^a) | –
